Measured values published in ChEMBL document CHEMBL1201862, “PubChem BioAssay data set” (2004).
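Following 48 hours of exposure in 96-well plates, responses at five concentrations were used to interpolate endpoints linearly. At the GI50, growth is halved.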 Active and inactive are the calls of the source. Cut-off read from the data, not from the text of the source: active = GI50 up to about 1.1 µM and inactive = higher.

How the values were obtained:
Assay in all cases: NCI-60 cell line screen, 48 h
A549 = tested on: A549
NCI/ADR-RES = tested on: NCI/ADR-RES
OVCAR-4 = tested on: OVCAR-4
DU-145 = tested on: DU-145
COLO 205 = tested on: COLO 205
LOX IMVI = tested on: LOX IMVI
MDA-MB-231 = tested on: MDA-MB-231
EKVX = tested on: EKVX
Hs-578T = tested on: Hs-578T
IGROV-1 = tested on: IGROV-1
SK-MEL-2 = tested on: SK-MEL-2
SR = tested on: SR
SF-295 = tested on: SF-295
MOLT-4 = tested on: MOLT-4
HCT-15 = tested on: HCT-15
OVCAR-3 = tested on: OVCAR-3
Malme-3M = tested on: Malme-3M
HOP-92 = tested on: HOP-92
SN12C = tested on: SN12C
SK-MEL-5 = tested on: SK-MEL-5
UACC-62 = tested on: UACC-62
MDA-N = tested on: MDA-N
ACHN = tested on: ACHN
HOP-62 = tested on: HOP-62
SF-268 = tested on: SF-268
HT-29 = tested on: HT-29
SW-620 = tested on: SW-620
SNB-75 = tested on: SNB-75
OVCAR-8 = tested on: OVCAR-8
T47D = tested on: T47D
UACC-257 = tested on: UACC-257
NCI-H522 = tested on: NCI-H522
NCI-H460 = tested on: NCI-H460
PC-3 = tested on: PC-3
HCT-116 = tested on: HCT-116
M14 = tested on: M14
SK-OV-3 = tested on: SK-OV-3
NCI-H23 = tested on: NCI-H23
RXF 393 = tested on: RXF 393
786-0 = tested on: 786-0
CCRF-CEM = tested on: CCRF-CEM
TK-10 = tested on: TK-10
RPMI-8226 = tested on: RPMI-8226
SK-MEL-28 = tested on: SK-MEL-28
K562 = tested on: K562
MCF7 = tested on: MCF7
CAKI-1 = tested on: CAKI-1
HL-60 = tested on: HL-60
KM12 = tested on: KM12
HCC 2998 = tested on: HCC 2998
OVCAR-5 = tested on: OVCAR-5
U-251 = tested on: U-251
BT-549 = tested on: BT-549
NCI-H226 = tested on: NCI-H226
SNB-19 = tested on: SNB-19
A498 = tested on: A498
UO-31 = tested on: UO-31
MDA-MB-435 = tested on: MDA-MB-435
SF-539 = tested on: SF-539

Measured: GI50

CC(C)c1cc(C(C)C)c(B(c2ccccc2)c2ccccc2)c(C(C)C)c1B(c1ccccc1)c1ccccc1
inactive: A549 > 100 µM | NCI/ADR-RES > 100 µM | OVCAR-4 > 100 µM | DU-145 > 100 µM | COLO 205 > 100 µM | LOX IMVI > 100 µM | MDA-MB-231 > 100 µM | EKVX > 100 µM | Hs-578T > 100 µM | IGROV-1 > 100 µM | SK-MEL-2 > 100 µM | SR > 100 µM | SF-295 > 100 µM | MOLT-4 > 100 µM | OVCAR-3 > 100 µM | Malme-3M > 100 µM | HOP-92 > 100 µM | SN12C > 100 µM | SK-MEL-5 > 100 µM | UACC-62 > 100 µM | MDA-N > 100 µM | ACHN > 100 µM | HOP-62 > 100 µM | SF-268 > 100 µM | HT-29 > 100 µM | SW-620 > 100 µM | SNB-75 > 100 µM | OVCAR-8 > 100 µM | T47D > 100 µM | UACC-257 > 100 µM | NCI-H522 > 100 µM | NCI-H460 > 100 µM | PC-3 > 100 µM | HCT-116 > 100 µM | M14 > 100 µM | SK-OV-3 > 100 µM
> 100 µM: HCT-15

CC(=O)OC[C@]12CCC3[C@@]4(C)CCCC(C)(C)C4CC[C@@]3(C)C1CC(C1=CC(=O)OC1O)O2 (stereo partly drawn)
active: RXF 393 0.382 µM | SR 0.259 µM | MOLT-4 0.252 µM | 786-0 0.219 µM | CCRF-CEM 0.271 µM | RPMI-8226 0.275 µM | HT-29 0.692 µM | SW-620 0.375 µM | SK-MEL-28 0.512 µM | OVCAR-8 0.962 µM | K562 0.425 µM | MCF7 0.726 µM | HL-60 0.428 µM
inactive: A549 1.85 µM | DU-145 4.07 µM | COLO 205 2.25 µM | NCI-H23 1.39 µM | MDA-MB-231 1.26 µM | EKVX 2.44 µM | IGROV-1 1.19 µM | TK-10 1.75 µM | SK-MEL-5 1.44 µM | UACC-62 1.53 µM | MDA-N 1.16 µM | HOP-62 1.9 µM | SF-268 1.44 µM | SNB-75 1.8 µM | T47D 1.32 µM | PC-3 1.32 µM | M14 1.5 µM | CAKI-1 1.72 µM | SK-OV-3 1.87 µM | KM12 1.68 µM | HCC 2998 1.47 µM
0.516 µM: HCT-15

O=C(NN=C1NCCCCN1)Nc1ccc(Cl)cc1
inactive: OVCAR-5 > 100 µM | A549 > 100 µM | NCI/ADR-RES > 100 µM | OVCAR-4 > 100 µM | COLO 205 > 100 µM | NCI-H23 > 100 µM | RXF 393 > 100 µM | LOX IMVI > 100 µM | U-251 > 100 µM | EKVX > 100 µM | Hs-578T > 100 µM | IGROV-1 > 100 µM | SK-MEL-2 > 100 µM | SR 22.8 µM | SF-295 > 100 µM | MOLT-4 23.9 µM | BT-549 > 100 µM | NCI-H226 85.1 µM | SNB-19 > 100 µM | OVCAR-3 > 100 µM | 786-0 > 100 µM | Malme-3M > 100 µM | CCRF-CEM 47.2 µM | A498 > 100 µM | TK-10 > 100 µM | HOP-92 > 100 µM | SK-MEL-5 > 100 µM | UACC-62 > 100 µM | ACHN > 100 µM | HOP-62 > 100 µM | RPMI-8226 45.1 µM | SF-268 93.1 µM | HT-29 > 100 µM | SW-620 > 100 µM | SNB-75 31.6 µM | SK-MEL-28 > 100 µM | OVCAR-8 > 100 µM | UO-31 > 100 µM | T47D > 100 µM | UACC-257 > 100 µM | K562 33 µM | MCF7 > 100 µM | NCI-H522 > 100 µM | MDA-MB-435 > 100 µM | NCI-H460 > 100 µM | PC-3 73.5 µM | SF-539 > 100 µM | HCT-116 > 100 µM | CAKI-1 > 100 µM | HL-60 26.5 µM | SK-OV-3 > 100 µM | KM12 > 100 µM | HCC 2998 > 100 µM
> 100 µM: HCT-15

CCOC(=O)c1csc(NC(=O)C(C)N2CCCC2)n1 (stereo not drawn)
inactive: OVCAR-5 > 100 µM | A549 > 100 µM | OVCAR-4 > 100 µM | DU-145 > 100 µM | COLO 205 > 100 µM | NCI-H23 > 100 µM | RXF 393 > 100 µM | LOX IMVI > 100 µM | U-251 > 100 µM | MDA-MB-231 > 100 µM | IGROV-1 > 100 µM | SK-MEL-2 > 100 µM | SF-295 > 100 µM | SNB-19 > 100 µM | OVCAR-3 > 100 µM | CCRF-CEM > 100 µM | A498 > 100 µM | TK-10 > 100 µM | HOP-92 > 100 µM | SK-MEL-5 > 100 µM | UACC-62 > 100 µM | MDA-N > 100 µM | ACHN > 100 µM | HOP-62 > 100 µM | RPMI-8226 19.3 µM | HT-29 > 100 µM | SW-620 > 100 µM | SNB-75 > 100 µM | SK-MEL-28 > 100 µM | OVCAR-8 > 100 µM | UO-31 > 100 µM | T47D > 100 µM | UACC-257 > 100 µM | K562 > 100 µM | MCF7 > 100 µM | MDA-MB-435 > 100 µM | NCI-H460 > 100 µM | PC-3 > 100 µM | SF-539 > 100 µM | M14 > 100 µM | CAKI-1 > 100 µM | SK-OV-3 > 100 µM | KM12 > 100 µM | HCC 2998 > 100 µM
> 100 µM: HCT-15

CCOC(=O)CNC(=O)C(C)NC(=O)C(NC(=O)CC(c1ncc[nH]1)c1ncc[nH]1)C(C)CC (stereo not drawn)
> 100 µM: HCT-15
inactive: OVCAR-5 > 100 µM | A549 > 100 µM | NCI/ADR-RES > 100 µM | OVCAR-4 63.7 µM | DU-145 > 100 µM | COLO 205 > 100 µM | NCI-H23 > 100 µM | LOX IMVI > 100 µM | U-251 > 100 µM | MDA-MB-231 > 100 µM | EKVX > 100 µM | Hs-578T > 100 µM | IGROV-1 > 100 µM | SK-MEL-2 > 100 µM | SR > 100 µM | SF-295 > 100 µM | MOLT-4 > 100 µM | SNB-19 > 100 µM | OVCAR-3 > 100 µM | 786-0 > 100 µM | Malme-3M > 100 µM | CCRF-CEM > 100 µM | A498 > 100 µM | TK-10 > 100 µM | HOP-92 > 100 µM | SN12C > 100 µM | UACC-62 > 100 µM | MDA-N > 100 µM | ACHN > 100 µM | RPMI-8226 > 100 µM | SF-268 > 100 µM | SW-620 > 100 µM | SNB-75 > 100 µM | SK-MEL-28 > 100 µM | OVCAR-8 > 100 µM | UO-31 > 100 µM | T47D > 100 µM | UACC-257 > 100 µM | K562 > 100 µM | MCF7 > 100 µM | NCI-H522 > 100 µM | MDA-MB-435 > 100 µM | NCI-H460 > 100 µM | SF-539 > 100 µM | HCT-116 > 100 µM | M14 84.9 µM | CAKI-1 > 100 µM | HL-60 > 100 µM | SK-OV-3 > 100 µM | KM12 > 100 µM | HCC 2998 > 100 µM

CC1=CC(=O)c2cccc(NC3=NCCO3)c21
49.4 µM: HCT-15
inactive: OVCAR-5 > 100 µM | A549 81.7 µM | NCI/ADR-RES 29.5 µM | OVCAR-4 78.7 µM | DU-145 74.1 µM | COLO 205 41.1 µM | NCI-H23 43.5 µM | RXF 393 48.9 µM | LOX IMVI 37.8 µM | U-251 64 µM | MDA-MB-231 32.4 µM | EKVX > 100 µM | Hs-578T 76.9 µM | IGROV-1 36.1 µM | SK-MEL-2 97.1 µM | SR 38.2 µM | SF-295 > 100 µM | MOLT-4 32.7 µM | NCI-H226 29 µM | SNB-19 > 100 µM | OVCAR-3 25.4 µM | 786-0 86.5 µM | Malme-3M 30.6 µM | CCRF-CEM 42 µM | A498 38 µM | TK-10 > 100 µM | HOP-92 36.1 µM | SN12C 52.7 µM | SK-MEL-5 23.2 µM | UACC-62 > 100 µM | MDA-N 27.7 µM | ACHN 86.7 µM | HOP-62 > 100 µM | RPMI-8226 45.1 µM | SF-268 > 100 µM | HT-29 34 µM | SW-620 > 100 µM | SNB-75 52.6 µM | SK-MEL-28 78.7 µM | UO-31 76.6 µM | T47D 68.7 µM | K562 34.5 µM | NCI-H522 69.8 µM | MDA-MB-435 31.6 µM | NCI-H460 31.3 µM | PC-3 46.6 µM | SF-539 46.8 µM | HCT-116 33.6 µM | M14 47.3 µM | CAKI-1 > 100 µM | HL-60 19.7 µM | SK-OV-3 > 100 µM | KM12 30.4 µM | HCC 2998 33.4 µM
